In data set [1] the target is T1, NLRP3 inflammasome (Homo sapiens, UniProt Q96P20).
T1 construct: host or cells: THP-1 cells
Kind of data set: Inhibitory activity of NLRP3 inflammasome in human monocytes (THP-1 cells, LPS + Nigericin, IL-1β ELISA). The data set is classed as cell-based. The procedure: 1. Determination of inhibitory activity of NLRP3 inflammasome in human monocytes
Experimental method: THP-1 cells were cultured in RPMI culture medium containing PMA (10 µM), and then inoculated in 48-well plates at a density of 2×10^5 cells/mL, the plates were incubated overnight in a 5% CO2 incubator at 37°C. The next day, the above culture medium was replaced with Opti-MEM culture medium containing 1 µg/mL LPS. After 3 hours, the grown cells were simulated for 40 min with a drug, and then simulated for 40 min with Nigericin (10 µM), and a cell supernatant was harvested for ELISA analysis.
Table 2 Inhibitory activity of NLRP3 inflammasome
(In an ELISA, binding on a coated surface is turned into a signal by an enzyme label.)

Data set [2] in a line: Pharmacokinetic evaluation in Balb/c mice. The data set is classed as in vivo. The note with it: mouse, in vivo, 5 mg/kg. An excerpt:
4. Pharmacokinetic evaluation of compounds in Balb/c mice
Experimental purpose: to understand pharmacokinetic properties of the compounds.
Experimental basis: Technical Guidelines for Nonclinical Pharmacokinetic Studies of Chemical Drugs, 2014.
Experimental protocol: the pharmacokinetic properties of the compounds were investigated via intravenous administration and intragastric administration in Balb/c mice.
The blood drug concentration was quantitatively analyzed by LC-MS/MS, and pharmacokinetic parameters were calculated, such as peak concentration (Cmax), area under the concentration-time curve (AUC(0-t)), half-life (T1/2), clearance (CL), volume of distribution at steady state (Vdss), and bioavailability (F).
The results of pharmacokinetic evaluation are shown in Table 5 below: Table 5 Pharmacokinetic test results of compounds in Balb/c mice

The target of data set [3] is T2, hERG potassium ion channel (Homo sapiens, UniProt Q12809).
T2 sequence (Q12809 whole entry): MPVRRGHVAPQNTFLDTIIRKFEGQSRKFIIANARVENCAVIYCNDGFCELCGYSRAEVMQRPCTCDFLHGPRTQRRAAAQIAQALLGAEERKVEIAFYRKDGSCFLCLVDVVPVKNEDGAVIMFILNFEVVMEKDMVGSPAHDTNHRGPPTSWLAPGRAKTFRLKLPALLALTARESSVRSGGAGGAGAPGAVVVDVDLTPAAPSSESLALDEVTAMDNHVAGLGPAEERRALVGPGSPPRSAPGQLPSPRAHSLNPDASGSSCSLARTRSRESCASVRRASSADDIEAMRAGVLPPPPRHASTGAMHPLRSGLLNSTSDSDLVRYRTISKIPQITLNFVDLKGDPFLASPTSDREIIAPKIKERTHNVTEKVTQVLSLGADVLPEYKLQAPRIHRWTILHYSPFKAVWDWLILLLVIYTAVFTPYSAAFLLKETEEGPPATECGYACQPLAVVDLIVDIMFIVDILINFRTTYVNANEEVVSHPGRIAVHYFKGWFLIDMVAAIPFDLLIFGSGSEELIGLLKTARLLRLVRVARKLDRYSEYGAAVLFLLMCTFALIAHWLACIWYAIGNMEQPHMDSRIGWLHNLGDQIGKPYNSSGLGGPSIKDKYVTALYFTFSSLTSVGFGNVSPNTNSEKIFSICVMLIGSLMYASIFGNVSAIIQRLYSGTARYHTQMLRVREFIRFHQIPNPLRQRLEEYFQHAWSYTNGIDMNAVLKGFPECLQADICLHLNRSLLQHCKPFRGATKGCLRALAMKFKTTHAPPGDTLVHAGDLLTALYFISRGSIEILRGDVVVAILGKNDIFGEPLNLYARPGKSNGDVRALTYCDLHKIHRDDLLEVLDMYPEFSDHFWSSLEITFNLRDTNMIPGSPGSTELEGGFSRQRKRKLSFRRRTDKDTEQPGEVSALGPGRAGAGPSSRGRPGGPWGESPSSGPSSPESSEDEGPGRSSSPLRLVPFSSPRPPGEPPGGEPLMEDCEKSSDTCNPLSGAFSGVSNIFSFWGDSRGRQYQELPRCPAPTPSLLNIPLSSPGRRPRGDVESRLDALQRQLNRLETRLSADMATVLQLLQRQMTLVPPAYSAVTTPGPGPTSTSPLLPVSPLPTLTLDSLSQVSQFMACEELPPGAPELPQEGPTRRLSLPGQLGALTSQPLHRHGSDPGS
Description: (§1) Inhibition experiment of compounds on hERG potassium ion channel
(§2) Cell culture and treatment: CHO cells stably expressing hERG were cultured in cell culture flasks and incubated in a 5% CO2 incubator at 37°C. When a cell density reached 60%-80%, the cell culture medium was aspirated, washed once with PBS, and then digested with Detachin. After digestion, the grown cells were neutralized in the cell culture medium, and then centrifuged, the supernatant was aspirated, the cell culture medium was added again to resuspend the grown cells, and the cell density was adjusted to 2-5×10^6 cells/mL for later use.
(§3) Compound preparation: the compound stock solution was diluted in 100% DMSO, that is, 10 µL compound stock solution was serially diluted in 20 µL DMSO by 3 folds to obtain six concentrations. Six concentrations of the compound (4 µL for each concentration) were diluted in 396 µL extracellular fluid by 100 folds to obtain six intermediate concentrations. Six intermediate concentrations of the compound (80 µL for each concentration) were diluted in 320 µL extracellular fluid by 5 folds to obtain final concentrations to be tested. […] DMSO in a final test concentration was not more than 0.2%, and DMSO at this concentration had no effect on the hERG potassium channel. The entire dilution process for compound preparation was performed using Bravo instrument.
(§4) Electrophysiological recording process: the processes of single-celled high-impedance sealing and whole-cell mode formation were all automatically completed by Qpatch instrument, under the whole-cell recording mode, the cells were clamped at -80 mV, before 5-second + 40 mV depolarization stimulus, the cells were given 50-millisecond - 50 mV pre-voltage, followed by repolarization to -50 mV for 5 seconds, and then returning to -80 mV. The voltage stimulus was given every 15 seconds, after 2 minutes of recording, extracellular fluid was recorded for 5 min, and then a drug was administrated, started from a lowest test concentration, each test concentration of the compound was given for 2.5 minutes, after all concentrations were given consecutively, a positive control compound Cisapride (3 µM) was given. At least 3 cells were tested for each concentration (n≥3).
(§5) Data processing: data analysis and processing were performed using GraphPad Prism 5.0 and Excel software. IC50 values of the compounds were calculated by fitting with the following equation using GraphPad Prism 5 software: Y = Bottom + (Top−Bottom)/(1+10^(∧)((LogIC50−X)*HillSlope)); [formula] where X is the Log value of the test sample concentration, Y is an inhibition percentage at a corresponding concentration, and Bottom and Top are the minimum and maximum inhibition percentages, respectively.
The target in data set [4] is T2, hERG potassium ion channel. The experiment in a line: Inhibition of hERG potassium ion channel (CHO cells stably expressing hERG, Qpatch). (Block of hERG is tested as a sign of cardiac risk.)
Description: as §1, §2, §3, §4, §5
The test system of data set [5] is LPS-induced mice. Kind of data set: LPS-induced mouse model, survival. It counts as in vivo, Balb/c mice. The note with it: for survival status of mice (mice alive) 12h / survival status of mice (mice alive) 24h / survival status of mice (mice alive) 36h / survival status of mice (mice alive) 48h / survival status of mice (mice alive) 72h: 25 mg/kg.
Data set [6] in a line: In vivo brain-to-plasma ratio in mice. The following applies: for Brain / Plasma: male mice, oral 10 mg/kg.
Description: Evaluation of in vivo brain-to-plasma ratio of compound
Experimental purpose: to obtain the brain-to-plasma ratio of the compound
Experimental protocol: the brain-to-plasma ratio of the compound was investigated by monitoring the content of the compound in mouse brain and plasma.
Experimental procedure: the compound was weighed, followed by adding a small amount of DMSO and adding a sodium chloride solution for injection, to prepare a 10 mg · mL^-1 compound solution for administration. Male mice were orally administered at 10 mg · kg^-1, and whole plasma and whole brain tissue were sampled at 1 h and 6 h after administration (n=3). […] A centrifuge tube was weighed as M1, the centrifuge tube containing the whole brain tissue was weighed as M2, the centrifuge tube containing water for homogenization was weighed as M3, and the centrifuge tube after the removal of 30 µL homogenate was weighed as M4.
Standard curve range: 10-10,000 ng·mL^-1. Content of drug in brain = measured value × 0.03 × (M3−M1)/[(M2−M1)×(M3−M4)].
The mark [7] stands for this setting: PO, Balb/c mice, read-out: AUC(0-t).
The mark [8] stands for this setting: PO, Balb/c mice, read-out: Cmax.
Setting [9] is: PO, Balb/c mice, read-out: T1/2 (converted).
Where [10] appears, read: THP-1 cells, PMA, LPS 1 µg/mL 3 h, drug 40 min, Nigericin 10 µM 40 min, IL-1β ELISA, read-out: IC50.
Where [11] appears, read: male, mouse, brain/plasma, po, 10 mg/kg.
[12] abbreviates: male, mouse, plasma, po, 10 mg/kg.

pIC50: −log10 of the molar value. Read-outs that look alike come from different tables or passages of the source.

T1 sequence (Q96P20 whole entry): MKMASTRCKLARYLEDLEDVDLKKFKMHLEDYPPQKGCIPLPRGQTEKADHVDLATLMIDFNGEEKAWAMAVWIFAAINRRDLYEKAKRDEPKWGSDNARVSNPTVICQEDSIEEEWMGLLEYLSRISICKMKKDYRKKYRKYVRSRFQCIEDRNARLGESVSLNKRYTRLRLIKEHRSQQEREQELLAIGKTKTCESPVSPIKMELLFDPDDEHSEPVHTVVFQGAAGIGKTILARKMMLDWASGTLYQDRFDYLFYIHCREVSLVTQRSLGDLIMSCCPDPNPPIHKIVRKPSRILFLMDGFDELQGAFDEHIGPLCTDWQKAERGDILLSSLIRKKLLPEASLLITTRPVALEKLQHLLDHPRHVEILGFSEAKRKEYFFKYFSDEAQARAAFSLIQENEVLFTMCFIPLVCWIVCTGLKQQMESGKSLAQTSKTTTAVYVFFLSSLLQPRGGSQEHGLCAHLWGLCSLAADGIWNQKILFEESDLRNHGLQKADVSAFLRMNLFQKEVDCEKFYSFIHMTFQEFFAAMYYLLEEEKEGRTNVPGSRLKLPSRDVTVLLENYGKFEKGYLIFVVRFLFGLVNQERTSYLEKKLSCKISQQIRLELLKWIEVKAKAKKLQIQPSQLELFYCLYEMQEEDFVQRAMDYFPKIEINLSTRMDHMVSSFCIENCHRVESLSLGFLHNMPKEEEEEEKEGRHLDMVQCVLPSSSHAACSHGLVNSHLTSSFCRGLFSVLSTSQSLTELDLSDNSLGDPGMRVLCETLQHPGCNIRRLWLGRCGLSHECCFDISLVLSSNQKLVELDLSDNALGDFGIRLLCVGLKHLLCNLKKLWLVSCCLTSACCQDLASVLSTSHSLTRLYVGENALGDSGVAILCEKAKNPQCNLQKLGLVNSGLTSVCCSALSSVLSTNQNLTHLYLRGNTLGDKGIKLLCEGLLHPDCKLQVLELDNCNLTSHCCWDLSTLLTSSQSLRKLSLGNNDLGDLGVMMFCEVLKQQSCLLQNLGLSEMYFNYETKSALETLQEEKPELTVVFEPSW

As usually defined, the pIC50 is the negative decadic logarithm of the IC50, by convention in mol/L. For orientation: AUC(0-t) means exposure summed from dosing to a finite time, without extrapolation to infinity. Broadly, the Cmax is the peak of the concentration-time curve. Consider `[2H]C([2H])([2H])C([2H])([2H])N1CCC[C@@H](Nc2nnc(-c3ccc4sccc4c3O)n(C)c2=O)C1` [Compound 6, (R)-6-((1-(ethyl-d5)piperidin-3-yl)amino)-3-(4-hydroxybenzo[b]thiophen-5-yl)-4-methyl-1,2,4-triazin-5(4H)-ketone], for which, in data set [1], the pIC50 was 8.52. In addition, in data set [2] (setting [7]), the exposure AUC(0-t) was 8300 ng·h/mL. Besides, the Cmax in data set [2] (setting [8]) turned out to be 1340 ng/mL. Besides, in data set [2] (setting [9]), the half-life was 191 min.

For the molecule `C#Cc1ccc(-c2nnc(N[C@@H]3CCCN(C)C3)c(=O)n2C)c(O)c1` [Compound 24, (R)-3-(4-ethynyl-2-hydroxyphenyl)-4-methyl-6-((1-methylpiperidin-3-yl)amino)-1,2,4-triazin-5(4H)-ketone], the negative logarithm of the IC50 (pIC50) in data set [1] (setting [10]) was 7.92. Besides, in data set [3] (human), the “inhibitory effects on the hERG potassium ion channel (conclusion in words)” value (shortened to “inhibitory effects”) is “Conclusion: compounds 3, 4, 5, 9, 16, 17, 24, 30, 40, 41, 42, 43, 54 and others have weak inhibitory effects on the hERG potassium ion channel, having weaker inhibitory effect than the reference compound Ref-1”. Moreover, in data set [4], the “20 uM Inhibition ratio” value was 6.83%.

The term Kp denotes tissue or fluid exposure divided by exposure in the circulation. Consider `Cc1nc(N[C@@H]2CCCC[C@H]2O)nnc1-c1ccc(C(F)(F)F)cc1O` [Ref-2, reference compound], for which the pIC50 in data set [1] was 7.83. The area under the curve AUC(0-t) in data set [2] (setting [7]) stood at 270 ng·h/mL. The Cmax in data set [2] (setting [8]) is 246 ng/mL. The half-life in data set [2] (setting [9]) was 156 min. Moreover, the “72h Survival rate” value in data set [5] (25 mg/kg oral, 1 h before 10 mg/kg LPS i.p.) was found to be 50%. Also, in data set [5] (First cage (5 mice)), the “survival status of mice (mice alive) 12h” value was 5, the “survival status of mice (mice alive) 24h” value was determined as 5, the “survival status of mice (mice alive) 36h” value is 4 and the “survival status of mice (mice alive) 48h” value came to 2. Further, in data set [5] (First cage (5 mice)), the “survival status of mice (mice alive) 72h” value worked out at 2. In addition, in data set [5] (Second cage (5 mice)), the “survival status of mice (mice alive) 12h” value came to 5, the “survival status of mice (mice alive) 24h” value was 4, the “survival status of mice (mice alive) 36h” value came to 4 and the “survival status of mice (mice alive) 48h” value is 3. For the same molecule, the “survival status of mice (mice alive) 72h” value in data set [5] (Second cage (5 mice)) was found to be 3. Further, in data set [6] (1 h), the Brain came out at 168 ng/g and the Plasma came to 264 ng/mL. Also, in data set [6] (6 h), the Plasma was 8.27 ng/mL. In addition, in data set [6] (mouse, brain, po, 10 mg/kg), the Kp at 1 h turned out to be 0.63 and the Kp at 6 h was 0.17.

Turning to `[2H]C([2H])([2H])n1c(-c2ccc3sccc3c2O)nnc(N[C@@H]2CCCN(CC)C2)c1=O` [Compound 55, (R)-6-((1-ethylpiperidin-3-yl)amino)-3-(4-hydroxybenzo[b]thiophen-5-yl)-4-(methyl-d3)-1,2,4-triazin-5(4H)-ketone], in data set [1], the pIC50 is 8.46. Further, the AUC(0-t) in data set [2] (setting [7]) is 7450 ng·h/mL. The maximum concentration (Cmax) in data set [2] (setting [8]) was 1710 ng/mL. In data set [2] (setting [9]), the half-life was 175 min.

On to `Cn1c(-c2ccc3sccc3c2O)nnc(N[C@@H]2CCCN(C3CC(F)(F)C3)C2)c1=O` [Compound 5, (R)-6-((1-(3,3-difluorocyclobutyl)piperidin-3-yl)amino)-3-(4-hydroxybenzo[b]thiophen-5-yl)-4-methyl-1,2,4-triazin-5(4H)-ketone], for which the negative logarithm of the IC50 (pIC50) in data set [1] (setting [10]) was 8.45. In data set [3] (human), the “inhibitory effects” value is “Conclusion: compounds 3, 4, 5, 9, 16, 17, 24, 30, 40, 41, 42, 43, 54 and others have weak inhibitory effects on the hERG potassium ion channel, having weaker inhibitory effect than the reference compound Ref-1”. In data set [4], the “20 uM Inhibition ratio” value turned out to be 19.97%.

On to `CC(C)N1CCC[C@@H](Nc2nnc(-c3ccc4sccc4c3O)n(C)c2=O)C1` [Compound 36], for which the negative-log IC50 (pIC50) in data set [1] is 8.81. Further, the area under the curve AUC(0-t) in data set [2] (setting [7]) stood at 3320 ng·h/mL. In data set [2] (setting [8]), the Cmax was 1510 ng/mL. Further, in data set [2] (setting [9]), the half-life was 74.4 min.

`CCN1CCC[C@@H](Nc2nnc(-c3ccc4c(c3O)CCC4=C(F)F)n(C)c2=O)C1` [Compound 2, (R)-3-(1-(difluoromethylene)-4-hydroxy-2,3-dihydro-1H-inden-5-yl)-6-((1-ethylpiperidin-3-y 1)amino)-4-methyl-1,2,4-triazin-5(4H)-ketone]: the pIC50 in data set [1] was 8.31. The exposure AUC(0-t) in data set [2] (setting [7]) amounted to 15200 ng·h/mL. Besides, the Cmax in data set [2] (setting [8]) stood at 2690 ng/mL. Moreover, in data set [2] (setting [9]), the half-life was 169 min.

As for `CN1CCC[C@@H](Nc2nnc(-c3ccc(C(F)(F)F)cc3O)n(C)c2=O)C1` [Ref-3, reference compound], in data set [1] (setting [10]), the negative logarithm of the IC50 (pIC50) was 8.19. In addition, the AUC(0-t) in data set [2] (setting [7]) was 1820 ng·h/mL. For the same molecule, in data set [2] (setting [8]), the Cmax stood at 1140 ng/mL. The half-life in data set [2] (setting [9]) is 52.2 min.

`Cn1c(-c2ccc3sccc3c2O)nnc(N[C@@H]2CCCN(CC3CC3)C2)c1=O` [Compound 8, (R)-6-((1-(cyclopropylmethyl)piperidin-3-yl)amino)-3-(4-hydroxybenzo[b]thiophen-5-yl)-4-methyl-1,2,4-triazin-5(4H)-ketone]: the pIC50 in data set [1] (setting [10]) was 8.72. Further, the “20 uM Inhibition ratio” value in data set [4] came to 69.48%.

As for `CCN1CCC[C@@H](Nc2nnc(-c3ccc4sccc4c3O)n(CC)c2=O)C1` [Compound 12, (R)-4-ethyl-6-((1-ethylpiperidin-3-yl)amino)-3-(4-hydroxybenzo[b]thiophen-5-yl)-1,2,4-triazi n-5(4H)-ketone], the pIC50 in data set [1] (setting [10]) is 8.14. Besides, in data set [2] (male, Balb/c, po), the exposure AUC(0-t) worked out at 12800 ng·h/mL, the peak level (Cmax) was 2740 ng/mL and the half-life was 185 min. For the same molecule, in data set [6] (1 h), the Brain amounted to 498 ng/g. Further, in data set [6] (6 h), the Brain was determined as 215 ng/g. Besides, in data set [6] (setting [11]), the Kp at 1 h stood at 0.13 and the concentration ratio (Kp) at 6 h is 0.13. For the same molecule, in data set [6] (setting [12]), the concentration at 1 h was determined as 3840 ng/mL and the concentration at 6 h amounted to 1700 ng/mL. The “20 uM Inhibition ratio” value in data set [4] worked out at 52.99%.

Consider `CN1C[C@H](F)C[C@@H](Nc2nnc(-c3ccc4sc(F)cc4c3O)n(C)c2=O)C1` [Compound 52, 3-(2-fluoro-4-hydroxybenzo[b]thiophen-5-yl)-6-{[(3R,5R)-5-fluoro-1-methylpiperidin-3-yl]amino}-4-methyl-4H,5H-1,2,4-triazin-5-ketone], for which, in data set [1], the negative-log IC50 (pIC50) is 8.30. The AUC(0-t) in data set [2] (setting [7]) came to 21400 ng·h/mL. Further, in data set [2] (setting [8]), the Cmax was determined as 8570 ng/mL. In addition, the half-life in data set [2] (setting [9]) is 190 min.

Regarding `CCN1C[C@H](F)C[C@@H](Nc2nnc(-c3ccc(C4CC4)cc3O)n(C)c2=O)C1` [Compound 53, 3-(4-cyclopropyl-2-hydroxyphenyl)-6-(((3R,5R)-1-ethyl-5-fluoropiperidin-3-yl)amino)-4-met hyl-1,2,4-triazin-5 (4H)-ketone], the pIC50 in data set [1] was 7.73. For the same molecule, the AUC(0-t) in data set [2] (setting [7]) was found to be 1400 ng·h/mL. Also, in data set [2] (setting [8]), the Cmax worked out at 1420 ng/mL. Further, the half-life in data set [2] (setting [9]) is 231 min.

With `CC(C)n1c(-c2ccc3sccc3c2O)nnc(N[C@@H]2CCCN(C)C2)c1=O` [Compound 54, (R)-3-(4-hydroxybenzo[b]thiophen-5-yl)-4-isopropyl-6-((1-methylpiperidin-3-yl)amino)-1,2,4-triazin-5(4H)-ketone], the AUC(0-t) in data set [2] (setting [7]) worked out at 7470 ng·h/mL. In addition, in data set [2] (setting [8]), the Cmax turned out to be 1550 ng/mL. In addition, the half-life in data set [2] (setting [9]) was 255 min. In addition, in data set [3], the “20 uM Inhibition ratio” value worked out at 7.77%; the “inhibitory effects” value was “Conclusion: compounds 3, 4, 5, 9, 16, 17, 24, 30, 40, 41, 42, 43, 54 and others have weak inhibitory effects on the hERG potassium ion channel, having weaker inhibitory effect than the reference compound Ref-1”.

With `COCCn1c(-c2ccc3sccc3c2O)nnc(N[C@@H]2CCCN(C)C2)c1=O` [Compound 51, 3-(4-hydroxybenzo[b]thiophen-5-yl)-6-{[(3R)-1-methylpiperidin-3-yl]amino}-4-(2-methoxyethyl)-4H,5H-1,2,4-triazin-5-ketone], the negative logarithm of the IC50 (pIC50) in data set [1] is 6.74. Further, the exposure AUC(0-t) in data set [2] (setting [7]) is 9780 ng·h/mL. Also, in data set [2] (setting [8]), the maximum concentration (Cmax) amounted to 2940 ng/mL. Also, the half-life in data set [2] (setting [9]) is 143 min.

On to `CN1CCC[C@@H](Nc2nnc(-c3ccc4c(c3O)CCC4=C(F)F)n(C)c2=O)C1` [Compound 13, (R)-3-(1-(difluoromethylene)-4-hydroxy-2,3-dihydro-1H-inden-5-yl)-4-methyl-6-((1-methylpiperidin-3-yl)amino)-1,2,4-triazin-5 (4H)-ketone], for which the pIC50 in data set [1] is 8.87. Moreover, the AUC(0-t) in data set [2] (setting [7]) amounted to 98700 ng·h/mL. Further, the Cmax in data set [2] (setting [8]) is 11400 ng/mL. In data set [2] (setting [9]), the half-life is 328 min.

Regarding `CCN1CCC[C@@H](Nc2nnc(-c3ccc4ccccc4c3O)n(C)c2=O)C1` [Compound 19, (R)-6-((1-ethylpiperidin-3-yl)amino)-3-(1-hydroxynaphthalen-2-yl)-4-methyl-1,2,4-triazin-5(4H)-ketone], the negative logarithm of the IC50 (pIC50) in data set [1] (read-out: IC50) is 7.72.

The record behind these values is patent publication EP4685142A1, “TRIAZINE COMPOUND AND USE THEREOF” (Chengdu Zenitar Biomedical Technology Co., Ltd., priority 2023, dated 2024).
